Measurements from patent publication US20230119894A1, “THERAPEUTIC OR PROPHYLACTIC METHOD FOR DIABETES USING COMBINATION MEDICINE” (Japan Tobacco Inc., priority 2019, published 2023).

Columns and labels:
glucose-loaded SD rats [1] = experiment: OGTT (Oral Glucose Tolerance Test), Test Example 2; assay type: in vivo, rat; conditions: male SD rats; 1, 3, or 10 mg/kg oral, 16 hours before glucose load; compared to vehicle, FIG. 1
Protocol: Vehicle (0.5% methylcellulose solution) or Compound 1 (1, 3, or 10 mg/kg) suspended in a 0.5% methylcellulose solution was orally administered in 5 mL/kg to an about 4-hour-fasted male SD rat (8-week old, Nihon Charles River K.K., 6 cases for each group).
Statistical analyses were based on Steel's multiple test. The significance level was two-sided 5%.

glucose-loaded SD rats [2] = experiment: OGTT (Oral Glucose Tolerance Test), Test Example 3; assay type: in vivo, rat; conditions: male SD rats; 3 mg/kg oral, 16 hours before glucose load; compared to vehicle, FIG. 2
Protocol: Vehicle (0.5% methylcellulose solution), or Compound 1, Compound A, or Compound B (3 mg/kg each) suspended in a 0.5% methylcellulose solution was orally administered in 5 mL/kg to an about 4-hour-fasted male SD rat (8-week old, Nihon Charles River K.K., 5 cases for each group).
Statistical analyses were based on Dunnett's multiple group test. The significance level was two-sided 5%.

C[C@H]1C(=O)NC[C@@H]1C(=O)Nc1cc(-c2cc(F)cc(OC(C)(C)C)c2)n(C(F)(F)F)n1 [Example 1, (3R,4R)—N-(5-(3-(tert-butoxy)-5-fluorophenyl)-1-(trifluoromethyl)-1H-pyrazol-3-yl)-4-methyl-5-oxopyrrolidine-3-carboxamide]
blood glucose level after the glucose load (Δ AUC 0-120 minutes, % of Vehicle) (glucose-loaded SD rats [1]): significantly reduced
blood glucose level after the glucose load (Δ AUC 0-120 minutes, % of Vehicle) (glucose-loaded SD rats [2]): significantly reduced
